# Experimental data published in PubChem BioAssay AID1241 (SRMLSC, 2008).
# Assay: NF-kB promoter reporter activators, neuronal cells, dose response, cell-based, SH-SY5Y, luciferase (AID 1241)
# Conditions: fold induction
row,SMILES,EC50 [µM]
1,COc1ccc(/C=N/Nc2cc(OC)ncn2)cc1,0.341
2,COCCOCCn1c(/C=C/c2ccccc2)nc2ccccc21,5.78
3,COc1ccc2nc(-c3ccccc3)[nH]c2c1,1.32
4,O=C(N/N=C/c1cccc(F)c1)c1csc2c1CCCC2,21.9
5,CCNC(=S)NNC(=O)c1cc(-c2ccc(OCC)cc2)nc2ccccc12,1.08
6,NC(=O)c1ccccc1N/C=C/C(=O)c1ccccc1,1.03
7,N/C(=N\OC(=O)c1ccccc1Cl)c1ccccc1,0.956
8,O=C(Nc1nc(-c2nc3ccccc3s2)cs1)C1CC1,15.6
9,Nc1ccccc1C(=O)OCCOc1ccccc1,0.91
10,Cc1cccc(/C=C/c2nc3ccccc3c(=O)[nH]2)c1,0.829
11,Cc1ccc2nc(NC(=O)c3cccs3)sc2c1,0.389
12,Clc1ccc(-c2nc3n(n2)Cc2ccccc2-3)cc1,0.343
13,Cc1ccc(NC(=O)c2noc3c2CCC3)cc1C,3.12
14,COc1ccc2nc(NC(=S)N(C)C)sc2c1,24.8
15,O=C(/C=C/Nc1ccc(F)c(F)c1)c1ccc(Br)cc1,3.91
16,NC(=O)c1ccccc1N/C=C/C(=O)c1ccc(Cl)cc1,5.14
17,Cc1cccnc1Nc1nc(-c2ccccn2)cs1,0.16
18,O=[N+]([O-])c1cc(O)c2ncccc2c1,7.94
19,N/C(=N\OC(=O)c1cccc(Cl)c1)c1ccccn1,1.95
20,Cc1ccc(NC(=O)/C(Cl)=C/c2ccccc2)cc1C,2.96
21,O=C(Cc1cccs1)Nc1nc2c(s1)CCCC2,20.2
22,Fc1ccccc1N1CCN(c2cnc3ccccc3n2)CC1,3.33
23,Clc1cccc(Cl)c1/C=C/c1nc2ccccc2[nH]1,1.19
24,Cc1nn(-c2nc3ccccc3s2)c(N)c1-c1ccccc1,9.75
25,Cc1ccc(C(=O)C(C)OC(=O)c2ccccc2[N+](=O)[O-])cc1 (centres undefined),9.08
26,CCc1ccc(C(=O)COC(=O)c2n[nH]c3ccccc23)cc1,2.54
27,c1ccc(-c2noc(-c3cccc4ccccc34)n2)cc1,15.6

row,SMILES,EC50 [µM]
1,Cc1ccc(Cc2cnc(NC(=O)c3ccco3)s2)cc1,1.34
2,CCCCc1ccc(-c2nc(-c3ccncc3)no2)cc1,4.14
3,CC(=O)Nc1ccc(-c2csc(Nc3cccc(C)n3)n2)cc1,1
4,COc1ccc(-c2cc(=O)c3cc(OC)ccc3o2)cc1,3.92
5,Cc1ccc(-c2nc(-c3ccccc3)no2)cc1,0.925
6,C(=N\Nc1nc(-c2ccccc2)cs1)/c1cccs1,5.97
7,O=C(CSC(=S)N1CCSCC1)c1ccccc1,3.44
8,COc1cccc(-c2cc(C(=O)N3CCCCCC3)no2)c1,1.99
9,Cc1ccccc1C(=O)O/N=C1\CCS(=O)(=O)c2sccc21,3.87
10,O=C(Cc1nc(=O)c2ccccc2s1)Nc1ccccc1,0.22
11,Oc1ccc(-c2csc(Nc3ncccn3)n2)c(O)c1,0.945
12,CC(=O)Nc1nc2ccc(-c3nc4ccccc4o3)cc2s1,1.46
13,COc1ccc(C2CC(c3c(O)cc(C)oc3=O)=NCCS2)c(OC)c1 (centres undefined),2.33
14,Cc1ccc(/C=N/Nc2ccc(Cl)c(C(=O)O)c2)s1,12.8
15,CC(=O)Oc1ccc(Oc2ccc(-c3noc(C)n3)cc2)cc1,2.84
16,COc1ccc(NC(=O)c2nc3ccccc3s2)cc1,0.461
17,c1ccc2c(c1)nnn1c3ccccc3nc21,0.346
18,COc1cccc(C(=O)/C=C/Nc2cccc(O)c2)c1,1.29
19,Nc1cccc(-c2nc3ccccc3s2)c1,1.41
20,O=C(/C=C/Nc1ccccc1C(F)(F)F)c1ccco1,1.47
21,CCCOc1ccc(C(=O)Nc2ccc(Cl)cn2)cc1,1.09
22,COc1ccccc1-c1nc(-c2ccc(Br)o2)no1,1.04
23,CC(=O)c1ccc(Nc2ccc(-c3ccccc3F)nn2)cc1,0.838
24,COc1ccc(C(=O)/C=C2\Sc3ccccc3N2C)cc1,1.75
25,COC(=O)c1cccc(NC(=O)c2onc3c2CCCC3)c1,2.04
26,CCOC(=O)c1c(N)sc(C(=O)Nc2ccccc2F)c1C,1.92
27,Cc1ccc2nc3cc([N+](=O)[O-])cc([N+](=O)[O-])c3cc2c1,1.19
